Measured values taken from ChEMBL document CHEMBL4342418, “1,2,3-Triazole-containing hybrids as potential anticancer agents: Current developments, action mechanisms and structure-activity relationships” (Eur J Med Chem, 2019).

Key:
MCF7 [1] = experiment: cells; assay type: functional, cell-based; settings: Homo sapiens
Description: Antiproliferative activity against human MCF7 cells by MTT assay

ECa-109 cell line = experiment: Antiproliferative activity against human EC109 cells by MTT assay; assay type: functional, cell-based
[2] = Antiproliferative activity against human HCG27 cells by MTT assay; assay type: functional, cell-based
MGC-803 = experiment: Antiproliferative activity against human MGC803 cells by MTT assay; assay type: functional, cell-based
HeLa [3] = experiment: Antiproliferative activity against human HeLa cells assessed as reduction in cell viability after 48 hrs by MTT assay; assay type: functional, cell-based
DU-145 = experiment: Antiproliferative activity against human DU145 cells assessed as reduction in cell viability after 48 hrs by MTT assay; assay type: functional, cell-based; settings: DU-145, 48 h
SK-OV-3 = experiment: Antiproliferative activity against human SKOV3 cells assessed as reduction in cell viability after 48 hrs by MTT assay; assay type: functional, cell-based; settings: SK-OV-3, 48 h
A2780 = experiment: Antiproliferative activity against human A2780 cells assessed as reduction in cell viability after 72 hrs by MTT assay; assay type: functional, cell-based; settings: A2780, 72 h
[4] = Antiproliferative activity against human […] cells assessed as reduction in cell viability after 72 hrs by MTT assay; assay type: functional, cell-based
MDA-MB-231 [5] = experiment: Antiproliferative activity against human MDA-MB-231 cells assessed as reduction in cell viability after 72 hrs by MTT assay; assay type: functional, cell-based; settings: MDA-MB-231, 72 h, read-out: IC50
HeLa [6] = experiment: Antiproliferative activity against human HeLa cells assessed as reduction in cell viability after 72 hrs by MTT assay; assay type: functional, cell-based
MCF7 [7] = experiment: Antiproliferative activity against human MCF7 cells assessed as reduction in cell viability after 72 hrs by MTT assay; assay type: functional, cell-based; settings: MCF7, 72 h
T47D [8] = experiment: Antiproliferative activity against human T47D cells assessed as reduction in cell viability after 72 hrs by MTT assay; assay type: functional, cell-based
A-431 = experiment: Antiproliferative activity against human A431 cells assessed as reduction in cell viability after 72 hrs by MTT assay; assay type: functional, cell-based; settings: A-431, 72 h
HT-29 [9] = experiment: Potency index, ratio of Sorafenib IC50 to test compound IC50 for antiproliferative activity against human HT-29 cells; assay type: functional
MCF7 [10] = experiment: Potency index, ratio of Sorafenib IC50 to test compound IC50 for antiproliferative activity against human MCF7 cells; assay type: functional
HT-29 [11] = experiment: Antiproliferative activity against human HT-29 cells assessed as reduction in cell viability after 72 hrs by MTT assay; assay type: functional, cell-based; settings: HT-29, 72 h
SW1573 = experiment: Antiproliferative activity against human SW1573 cells by MTT assay; assay type: functional, cell-based
HeLa [12] = experiment: Antiproliferative activity against human HeLa cells by MTT assay; assay type: functional, cell-based
T47D [13] = experiment: Antiproliferative activity against human T47D cells by MTT assay; assay type: functional, cell-based
WiDr = experiment: Antiproliferative activity against human WiDr cells by MTT assay; assay type: functional, cell-based
hTERT-BJ = experiment: Cytotoxicity activity against human hTERT-BJ cells by MTT assay; assay type: cell-based
A549 [14] = experiment: cells; assay type: functional, cell-based; settings: Homo sapiens
Description: Antiproliferative activity against human A549 cells by MTT assay

HBL-100 = experiment: Antiproliferative activity against human HBL100 cells by MTT assay; assay type: functional, cell-based
MDA-MB-231 [15] = experiment: Antiproliferative activity against human MDA-MB-231 cells by SRB assay; assay type: functional
IMR-32 = experiment: Antiproliferative activity against human IMR32 cells by SRB assay; assay type: functional
[16] = Antiproliferative activity against human MiaPaCa cells by SRB assay; assay type: functional; settings: MIA PaCa-2
Erythrocyte = experiment: Cytotoxicity against human RBC cells assessed as reduction in cell viability after 24 hrs by MTT assay; assay type: cell-based
MCF7 [17] = experiment: Antiproliferative activity against human MCF7 cells assessed as reduction in cell viability after 24 hrs by MTT assay; assay type: functional, cell-based; settings: MCF7, 24 h
PC-3 [18] = experiment: Antiproliferative activity against human PC3 cells assessed as reduction in cell viability after 24 hrs by MTT assay; assay type: functional, cell-based; settings: PC-3, 24 h
HepG2 [19] = experiment: Antiproliferative activity against human HepG2 cells assessed as reduction in cell viability after 24 hrs by MTT assay; assay type: functional, cell-based; settings: HepG2, 24 h
PBMC = experiment: Cytotoxicity against human PBMC cells assessed as reduction in cell viability after 24 hrs by MTT assay; assay type: cell-based
[20] = Cytotoxicity against human HEK cells assessed as reduction in cell viability after 24 hrs by MTT assay; assay type: cell-based; settings: HEK293, 24 h
HCT-116 [21] = experiment: Antiproliferative activity against human HCT116 cells assessed as reduction in cell viability after 24 hrs by MTT assay; assay type: functional, cell-based; settings: HCT-116, 24 h
HepG2 [22] = experiment: Antiproliferative activity against human HepG2 cells by MTT assay; assay type: functional, cell-based
U-87 MG = experiment: Antiproliferative activity against human U87MG cells assessed as reduction in cell viability after 48 hrs by MTT assay; assay type: functional, cell-based, U-87MG ATCC
HT-29 [23] = experiment: Antiproliferative activity against human HT-29 cells assessed as reduction in cell viability after 48 hrs by MTT assay; assay type: functional, cell-based; settings: HT-29, 48 h
SK-N-SH = experiment: Antiproliferative activity against human SK-N-SH cells by MTT assay; assay type: functional, cell-based
PC-3 [24] = experiment: cells; assay type: functional, cell-based; settings: Homo sapiens, PC-3, 48 h
Description: Antiproliferative activity against human PC3 cells assessed as reduction in cell viability after 48 hrs by MTT assay

MDA-MB-231 [25] = experiment: Antiproliferative activity against human MDA-MB-231 cells assessed as reduction in cell viability after 24 hrs by MTT assay; assay type: functional, cell-based; settings: MDA-MB-231, 24 h
MKN-28 = experiment: Antiproliferative activity against human MKN28 cells by MTT assay; assay type: functional, cell-based
A549 [26] = experiment: Antiproliferative activity against human A549 cells assessed as reduction in cell viability after 48 hrs by MTT assay; assay type: functional, cell-based; settings: A549, 48 h
MDA-MB-468 = experiment: Antiproliferative activity against human MDA-MB-468 cells assessed as reduction in cell viability after 72 hrs by MTT assay; assay type: functional, cell-based; settings: MDA-MB-468, 72 h
MKN-45 = experiment: Antiproliferative activity against human MKN45 cells by MTT assay; assay type: functional, cell-based
A549 [27] = experiment: Antitumour activity against human A549 cells xenografted in Kunming mice assessed as tumour growth inhibition at 20 mg/kg, iv bid administered and measured after week relative to control; assay type: functional; settings: Mus musculus, read-out: TGI
HeLa [28] = experiment: Antiproliferative activity against human HeLa cells assessed as reduction in cell viability after 24 hrs by MTT assay; assay type: functional, cell-based
A549/CDDP = experiment: Antiproliferative activity against human A549/CDDP cells assessed as reduction in cell viability after 72 hrs by MTT assay; assay type: functional, cell-based
HepG2 [29] = experiment: Antiproliferative activity against human HepG2 cells assessed as reduction in cell viability after 72 hrs by MTT assay; assay type: functional, cell-based; settings: HepG2, 72 h
A549 [30] = experiment: Antiproliferative activity against human A549 cells assessed as reduction in cell viability after 72 hrs by MTT assay; assay type: functional, cell-based; settings: A549, 72 h
U-251 = experiment: Antiproliferative activity against human U251 cells assessed as reduction in cell viability after 72 hrs by MTT assay; assay type: functional, cell-based; settings: U-251, 72 h
A549/TR = experiment: Antiproliferative activity against human A549/TR cells assessed as reduction in cell viability after 72 hrs by MTT assay; assay type: functional, cell-based
HCT-116 [31] = experiment: Antiproliferative activity against human HCT116 cells assessed as reduction in cell viability after 72 hrs by MTT assay; assay type: functional, cell-based; settings: HCT-116, 72 h
[32] = Antiproliferative activity against human GBM95 cells assessed as reduction in cell viability after 72 hrs by MTT assay; assay type: functional, cell-based
[33] = Antiproliferative activity against human GBM2 cells assessed as reduction in cell viability after 72 hrs by MTT assay; assay type: functional, cell-based; settings: GBM2, 72 h

Cc1ccc(Cn2cc(CSc3nc(Nc4ccccc4)c4ccccc4n3)nn2)cc1
IC50 (MCF7 [1]): 0.57 to 7.13 µM | IC50 (ECa-109 cell line): 0.57 to 7.13 µM | IC50 [2]: 0.57 to 7.13 µM | IC50 (MGC-803): 0.57 to 7.13 µM

O=C(NCc1cn(-c2ccc(F)cc2)nn1)C(=O)c1c[nH]c2ccccc12
IC50 (HeLa [3]): > 100 µM | IC50 (DU-145): 8.69 µM | IC50 (SK-OV-3): > 100 µM

CCc1ccc(-c2cn([C@H]3C[C@H]4[C@@H]5CCc6cc(OCc7ccccc7)ccc6[C@H]5CC[C@@]4(C)[C@@H]3O)nn2)cc1
IC50 (A2780): 2.4 to 8.3 µM | IC50 [4]: 2.4 to 8.3 µM | IC50 (MDA-MB-231 [5]): 2.4 to 8.3 µM | IC50 (HeLa [6]): 2.4 to 8.3 µM | IC50 (MCF7 [7]): 2.4 to 8.3 µM | IC50 (T47D [8]): 2.4 to 8.3 µM | IC50 (A-431): 2.4 to 8.3 µM

CNC(=O)c1cc(Oc2ccc(-n3cc(-c4ccccc4F)nn3)cc2)ccn1
Ratio IC50 (HT-29 [9]): 6.2 - 131.2 | IC50 (MCF7 [7]): 0.2 to 0.84 µM | Ratio IC50 (MCF7 [10]): 6.2 - 131.2 | IC50 (HT-29 [11]): 0.2 to 0.84 µM

C=CCC1CC(Cc2cn([C@@H](Cc3ccccc3)c3nc(C(=O)OC)co3)nn2)CC(O[Si](C)(C)C(C)(C)C)C1 (stereo not given in full)
IC50 (SW1573): 3.1 to 6.6 µM | IC50 (HeLa [12]): 3.1 to 6.6 µM | IC50 (T47D [13]): 3.1 to 6.6 µM | IC50 (WiDr): 3.1 to 6.6 µM | IC50 (hTERT-BJ): 53 µM | IC50 (A549 [14]): 3.1 to 6.6 µM | IC50 (HBL-100): 3.1 to 6.6 µM

N#Cc1ccccc1Cn1cc(CNc2ccc3oc(-c4ccccc4)cc(=O)c3c2)nn1
GI50 (MDA-MB-231 [15]): 0.11 to 1 µM | GI50 (IMR-32): 0.11 to 1 µM | GI50 [16]: 0.11 to 1 µM

C#Cc1cccc(Nc2ncnc3cc(OCCOC)c(OCCOC)cc23)c1 [ERLOTINIB]
IC50 (Erythrocyte): 16.2 µM | IC50 (MCF7 [17]): 11.6 to 26.9 µM | IC50 (PC-3 [18]): 11.6 to 26.9 µM | IC50 (HepG2 [19]): 11.6 to 26.9 µM | IC50 (PBMC): 20.5 µM | IC50 [20]: 29.5 µM | IC50 (HCT-116 [21]): 11.6 to 26.9 µM

O=c1[nH]cc(F)c(=O)[nH]1 [FLUOROURACIL]
IC50 (HepG2 [22]): 7.22 to 10.3 µM | IC50 (U-87 MG): 2.42 to 3.61 µM | IC50 (MCF7 [1]): 30 µg/mL | IC50 (HT-29 [23]): 2.42 to 3.61 µM | IC50 (ECa-109 cell line): 6.5 to 14.6 µM | IC50 (SK-N-SH): 7.22 to 10.3 µM | IC50 (PC-3 [24]): 2.42 to 3.61 µM | IC50 (MDA-MB-231 [25]): 1.6 to 1.9 µM | IC50 (MDA-MB-231 [5]): 7.5 to 12.7 µM | IC50 (MKN-28): 6.9 to 19.4 µM | IC50 (SW1573): 4.3 to 49 µM | IC50 (PC-3 [18]): 1.6 to 1.9 µM | IC50 (HeLa [12]): 4.3 to 49 µM | IC50 (T47D [13]): 4.3 to 49 µM | IC50 (WiDr): 4.3 to 49 µM | IC50 (MCF7 [7]): 7.5 to 12.7 µM | IC50 (A549 [26]): 2.42 to 3.61 µM | IC50 [2]: 6.5 to 14.6 µM | IC50 (HepG2 [19]): 1.6 to 1.9 µM | IC50 (hTERT-BJ): 5.5 µM | IC50 (A549 [14]): 4.3 to 49 µM | IC50 (MGC-803): 6.5 to 14.6 µM | IC50 (MDA-MB-468): 7.5 to 12.7 µM | IC50 (MKN-45): 6.9 to 19.4 µM | inhibition in vivo at 20 mg/kg (A549 [27]): 64.7% | IC50 (HeLa [28]): 1.6 to 1.9 µM | IC50 (HBL-100): 4.3 to 49 µM

CC(C)=CCC[C@]1(C)C=Cc2c(O)c3c(c(CC=C(C)C)c2O1)O[C@]12C(=C[C@@H]4C[C@H]1C(C)(C)O[C@@]2(C/C=C(/C)C(=O)O)C4=O)C3=O [GAMBOGIC ACID]
IC50 (A549/CDDP): 0.29 to 4.67 µM | IC50 (HepG2 [29]): 0.29 to 4.67 µM | IC50 (A549 [30]): 0.29 to 4.67 µM | IC50 (U-251): 0.29 to 4.67 µM | IC50 (A549/TR): 0.29 to 4.67 µM | IC50 (HCT-116 [31]): 0.29 to 4.67 µM

Cn1nnc2c(C(N)=O)ncn2c1=O [TEMOZOLOMIDE]
IC50 [32]: 625 µM | IC50 [33]: 1130 µM
